Assay results as given in patent publication US20240269220A1, “USES OF BLETILLA FORMOSANA EXTRACT FOR THE TREATMENT OF DISEASES ASSOCIATED WITH DYSREGULATED ACTIVATION OF NEUTROPHILS” (Chang Gung University, priority 2022, published 2024).

Experiments:
[1] = tested on: fMLF/CB-activated human neutrophils; test: Extracellular superoxide anion production (ferricytochrome c reduction) in fMLF/CB-activated human neutrophils; type: cell-based; settings: Neutrophil, chemical components of the extract, read-out: Superoxide anions IC50
Experimental: (§1) The study was conducted with the approval of the Institutional Review Board of Chang Gung Memorial Hospital in accordance with the Declaration of Helsinki. After written informed consent was obtained, whole blood samples were drawn from healthy individuals aged 20-30 years who had not taken any medication within the previous 5 weeks. Neutrophils were then isolated using the standard procedures for dextran sedimentation, Ficoll-Hypaque gradient centrifugation, and hypotonic lysis of erythrocytes. The isolated neutrophils were then suspended in Ca^2+-free HBSS (pH 7.4) and stored at 4° C. until use.
Extracellular superoxide anion production in activated neutrophils was assessed through the reduction of ferricytochrome c. After incubating them with Ca^2+(1 mM) and ferricytochrome c (0.6 mg/mL) at 37° C., the isolated human neutrophils (6×10^5 cells/mL) were then incubated with DMSO or the present B. formosana extract for 5 min. The cells were pretreated with cytochalasin B (CB, 1 or 2 μg/mL) for 3 min and stimulated with fMLF. The change in absorbance at 550 nm was detected continuously using a spectrophotometer (U-3010, Hitachi, Tokyo, Japan), and superoxide anion levels were calculated using a method described previously (Hwang et al., 2003 Mol. Pharmacol. 64(6), 1419-1427).

[2] = tested on: fMLF/CB-activated human neutrophils; test: Neutrophil elastase release in fMLF/CB-activated human neutrophils; type: cell-based; settings: chemical components of the extract
Experimental: as §1
Human neutrophils (6×10^5 cells/mL) were incubated with DMSO or the present B. formosana extract after treatment with 1 mM CaCl2 and 100 μM NE substrate (Methoxysuccinyl-Ala-Ala-Pro-Val-p-nitroanilide) at 37° C. for 5 min. Cells were stimulated with fMLF (0.1 μM)/cytochalasin B (CB) (0.5 μg/mL) for 10 min before determination of NE release by measuring the change of absorbance at 405 nm in a spectrophotometer.

| SMILES | IC50 [1] [µM] | IC50 [2] [µM] |
| --- | --- | --- |
| COc1cc(O)c(Cc2ccc(O)cc2)c2c1-c1ccc(O)cc1CC2 [Orchidble, 9,10-dihydro-1-[(4-hydroxyphenyl)methyl]-4-methoxy-2,7-phenanthrenediol] | 0.66 ± 0.12 | 6.26 ± 1.19 |
| COc1cc(O)cc(CCc2ccccc2)c1 [BF8-4-4, 3-hydroxy-5-methoxybibenzyl] | 1.86 ± 0.21 | 2.71 ± 0.16 |

Other lines, results leading:

| IC50 [1] [µM] | IC50 [2] [µM] | SMILES |
| --- | --- | --- |
| 4.64 ± 0.23 | 7.41 ± 0.5 | COc1cc(CCc2cccc(O)c2)cc(OC)c1 [BF8-4-3, 3,5-dimethoxy-3′-hydroxybibenzyl] |
| 4.63 ± 0.54 | > 10 | COc1cccc(CCc2cc(O)cc(OC)c2)c1 [BF8-4-2, 3′,5-dimethoxy-3-hydroxybibenzyl] |
| 4.3 ± 0.5 | > 10 | COc1cc(O)cc(CCc2cccc(O)c2)c1 [Batatasin III, 3,3′-dihydroxy-5-methoxybibenzyl] |
